Source: patent US20110028405A1, “SULFAMIDES AS ZAP-70 INHIBITORS” (priority 2007, published 2011)
pIC50: −log10 of the molar value.

How the values were obtained:
[1] = system: Jurkat cells; test: Calcium release assay (Fluo-4, flow cytometry, anti-CD3 stimulation); assay type: cell-based; details: Homo sapiens; intracellular Ca2+ release in Jurkat cells after anti-CD3 activation
Method: Compounds of the present invention were tested in a Calcium release assay as described below.
The development of fluorescent probes makes it possible to measure the concentration of intracellular free Calcium ions in single living cells. Cells are first loaded with a cell-permeable Ca^2+-sensitive dye, then the test compound is added. Finally, cells are activated through the T cell receptor with an anti-CD3 antibody shortly before data acquisition on the flow cytometer. The release of Ca^2+ is measured as a function of time after cell stimulation. This protocol describes the flow cytometry method using the Fluo-3 and Fluo-4 dyes (Minta et al., 1989, J. Biol. Chem. 264(14):8171-8178) to measure the intracellular Ca^2+ concentration in Jurkat cells (see also June et al., 1997, Measurement of intracellular calcium ions by flow cytometry. In: Current Protocols in Cytometry (1997) Unit 9.8.1-9.8.19, John Wiley & Sons, Inc.).
1) Prepare a work plan indicating the number of samples to be analyzed including controls. 2) Cell harvest: Centrifuge 50 to 100 ml of a Jurkat cell culture for 5 minutes at 1100 rpm. Discard the supernatant, pool the resuspended cell pellets in a single 50 ml Falcon tube, and fill up to 50 ml with PBS-CaCl2 (without FCS). Centrifuge again sample again. 3) Resuspend cell pellet with PBS-CaCl2 (without FCS) to achieve a concentration not lower than 10×10^6 cells/ml. Prepare an adequate dilution to evaluate the cell concentration and count the cells. 4) Separate the volume of cells needed to be loaded (for example […] for 20 samples) in a 50 ml Falcon tube. Fill up with PBS-CaCl2 to 900 μl for 107 cells. 5) Prepare in the dark a 1:1 mix of FLUO-4 (1 mM)+Pluronic F-127 (20%). 5 μl of Fluo-4 are needed per 107 cells. 6) Prepare a 1/10 dilution of this mix with PBS-CaCl2 (in the dark; for example 5 μl Fluo-4+5 μl F-127 completed to 100 μl). 7) Add the dye solution to the cells. […] 8) Incubate the sample for 30 minutes in a cell incubator (37° C., 5% CO2). Mix from time to time. 9) During this time prepare the adequate test compound dilution in PBS-CaCl2 (with 10% FCS). The solution should be 10 times more concentrated than the desired final concentration. Vortex each dilution. Prepare also the antibody dilutions: anti-CD3 (1/200) and GAM (1/25). 10) Label FACS tubes and distribute in the corresponding tube 30 μl of the compound dilution or only buffer for the control tubes. 11) After 30 minutes of incubation wash the cells twice in PBS-CaCl2 (with 10% FCS). During the washing steps make sure that the flow cytometer is already “ON” in order to warm the laser. 12) Resuspend the cell pellet in PBS-CaCl2 (with 10% FCS) at a concentration of 1.5×10^6 cells/ml. 13) Distribute 300 μl of cell suspension into the FACS tubes and mix gently. The compound incubation is starting. Keep samples at room temperature in the dark. 14) Open the settings of the cytometer. It is advised to have a template ready which is used for all measurements. Settings of the machine should also be the same from one experiment to the other which permits to evaluate the reproducibility of the cell preparation. 15) In Setup modus control your cell preparation on the cytometer. Cells should fit in the pre-defined gates. 16) During the compound incubation time, check also that cells are responding to the anti-CD3 activation as expected. Set a timer at 8 sec. Add 6 μl of anti-CD3 dilution (0.2 μg/ml final) and mix gently. Add 1 μl of GAM dilution (0.75 μg/ml final) and mix gently. Incubate the samples in water bath at 37° C. while starting timer. After 8 seconds of incubation, acquire data at medium speed for 200 seconds. A clear increase of fluorescence should appear after 1 minute. 17) Make sure that the cells rest and equilibrate at room temperature 15 minutes before FACS data acquisition 18) Data acquisition: Samples to be compared should be measured consecutively. 19) For a better reproducibility, make sure that data for the loaded cells are acquired within 2 hours. […]

[2] = biological target: T1, ZAP-70 (Homo sapiens, UniProt P43403); test: ZAP-70 kinobeads assay; assay type: binding; details: cell lysate, dot blot detection
T1 construct: endogenous in cells; host or cells: cell lysate
T1 sequence (P43403 1-619): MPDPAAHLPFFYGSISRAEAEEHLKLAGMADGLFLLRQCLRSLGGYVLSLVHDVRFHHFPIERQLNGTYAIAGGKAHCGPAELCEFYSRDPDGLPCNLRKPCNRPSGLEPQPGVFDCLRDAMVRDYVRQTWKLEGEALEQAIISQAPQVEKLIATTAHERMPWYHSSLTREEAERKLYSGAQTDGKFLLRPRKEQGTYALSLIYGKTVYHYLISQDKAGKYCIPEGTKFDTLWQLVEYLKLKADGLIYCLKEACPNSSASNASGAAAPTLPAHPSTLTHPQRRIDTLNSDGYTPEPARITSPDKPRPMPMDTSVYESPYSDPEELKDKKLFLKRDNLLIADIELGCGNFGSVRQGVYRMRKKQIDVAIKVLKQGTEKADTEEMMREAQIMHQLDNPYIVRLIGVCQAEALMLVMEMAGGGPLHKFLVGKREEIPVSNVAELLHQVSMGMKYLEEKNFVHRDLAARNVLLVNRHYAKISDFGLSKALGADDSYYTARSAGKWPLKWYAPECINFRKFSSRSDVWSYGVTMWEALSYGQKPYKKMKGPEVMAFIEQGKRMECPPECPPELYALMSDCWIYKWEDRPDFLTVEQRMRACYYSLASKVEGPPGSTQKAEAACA
Method: The compounds of the present invention as described in the previous examples can be tested in the ZAP-70 kinobeads assay as described (EP-A 1862802 and WO-A 2007/137867). Briefly, test compounds (at various concentrations) and the affinity matrix with the immobilized aminopyrido-pyrimidine ligand 24 are added to cell lysate aliquots and allowed to bind to the proteins in the lysate sample. After the incubation time the beads with captured proteins are separated from the lysate. Bound proteins are then eluted and the presence ZAP-70 is detected and quantified using a specific antibody in a dot blot procedure and the Odyssey infrared detection system.

pIC50 [1]	pIC50 [2]	SMILES
> 6.00	> 4.30	COc1cc(Nc2ncc(F)c(Nc3cccc(NS(N)(=O)=O)c3)n2)cc(OC)c1OC [Example 1, N-(3-(5-fluoro-2-(3,4,5-trimethoxyphenylamino)pyrimidin-4-ylamino)phenyl)sulfamide]
	> 4.30	COc1cc(Nc2ncc(F)c(Nc3cccc(NS(=O)(=O)N(C)C)c3)n2)cc(OC)c1OC [Example 2, N-(3-(5-fluoro-2-(3,4,5-trimethoxyphenylamino)pyrimidin-4-ylamino)phenyl)-N′,N′-dimethylsulfamide]
	> 4.30	COc1cc(Nc2ncc(F)c(Nc3cccc(NS(=O)(=O)NCC4CC4)c3)n2)cc(OC)c1OC [Example 3, N-(3-(5-fluoro-2-(3,4,5-trimethoxyphenylamino)pyrimidin-4-ylamino)phenyl)-N′-cyclopropylmethylsulfamide]
	> 4.30	COc1cc(Nc2ncc(F)c(Nc3cccc(NS(=O)(=O)NC(C)C)c3)n2)cc(OC)c1OC [Example 6, N-(3-(5-fluoro-2-(3,4,5-trimethoxyphenylamino)pyrimidin-4-ylamino)phenyl)-N′-isopropylsulfamide]
> 6.00	> 4.30	CCNS(=O)(=O)Nc1cccc(Nc2nc(Nc3cc(OC)c(OC)c(OC)c3)ncc2F)c1 [Example 7, N-(3-(5-fluoro-2-(3,4,5-trimethoxyphenylamino)pyrimidin-4-ylamino)phenyl)-N′-ethylsulfamide]
	> 4.30	COCCNS(=O)(=O)Nc1cccc(Nc2nc(Nc3cc(OC)c(OC)c(OC)c3)ncc2F)c1 [Example 8, N-(3-(5-fluoro-2-(3,4,5-trimethoxyphenylamino)pyrimidin-4-ylamino)phenyl)-N′-(2-methoxyethyl)sulfamide]
	> 4.30	CNS(=O)(=O)Nc1cccc(Nc2nc(Nc3cc(OC)c(OC)c(OC)c3)ncc2F)c1 [Example 9, N-(3-(5-fluoro-2-(3,4,5-trimethoxyphenylamino)pyrimidin-4-ylamino)phenyl)-N′-methylsulfamide]
> 7.00	> 7.00	COc1cc(Nc2ncc(F)c(Nc3ccccc3NS(N)(=O)=O)n2)cc(OC)c1OC [Example 10, N-(2-(5-fluoro-2-(3,4,5-trimethoxyphenylamino)pyrimidin-4-ylamino)phenyl)sulfamide]
> 6.00	> 6.00	COc1cc(Nc2ncc(F)c(Nc3ccccc3NS(=O)(=O)N(C)C)n2)cc(OC)c1OC [Example 11, N-(2-(5-fluoro-2-(3,4,5-trimethoxyphenylamino)pyrimidin-4-ylamino)phenyl)-N′,N′-dimethylsulfamide]
> 6.00	> 4.30	COc1cc(Nc2ncc(F)c(Nc3ccccc3NS(=O)(=O)NCC3CC3)n2)cc(OC)c1OC [Example 12, N-(2-(5-fluoro-2-(3,4,5-trimethoxyphenylamino)pyrimidin-4-ylamino)phenyl)-N′-cyclopropylmethylsulfamide]
	> 4.30	COc1cc(Nc2ncc(F)c(Nc3ccccc3NS(=O)(=O)NC(C)C)n2)cc(OC)c1OC [Example 13, N-(2-(5-fluoro-2-(3,4,5-trimethoxyphenylamino)pyrimidin-4-ylamino)phenyl)-N′-isopropylsulfamide]
	> 4.30	COc1cc(Nc2ncc(F)c(Nc3ccccc3NS(=O)(=O)NCc3ccccc3)n2)cc(OC)c1OC [Example 14, N-(2-(5-fluoro-2-(3,4,5-trimethoxyphenylamino)pyrimidin-4-ylamino)phenyl)-N′-benzylsulfamide]
> 6.00	> 4.30	COCCNS(=O)(=O)Nc1ccccc1Nc1nc(Nc2cc(OC)c(OC)c(OC)c2)ncc1F [Example 15, N-(2-(5-fluoro-2-(3,4,5-trimethoxyphenylamino)pyrimidin-4-ylamino)phenyl)-N′-(2-methoxyethyl)sulfamide]
> 6.00		COc1cc(Nc2ncc(F)c(Nc3ccc(NS(=O)(=O)N(C)C)cc3)n2)cc(OC)c1OC [Example 16, N-(4-(5-fluoro-2-(3,4,5-trimethoxyphenylamino)pyrimidin-4-ylamino)phenyl)N′,N′-dimethylsulfamide]
> 6.00	> 6.00	COc1cc(Nc2nccc(Nc3ccccc3NS(N)(=O)=O)n2)cc(OC)c1OC [Example 23, N-(2-(2-(3,4,5-trimethoxyphenylamino)pyrimidin-4-ylamino)phenyl)sulfamide]
> 7.00	> 6.00	COc1cc(Nc2ncc(C)c(Nc3ccccc3NS(N)(=O)=O)n2)cc(OC)c1OC [Example 24, N-(2-(5-methyl-2-(3,4,5-trimethoxyphenylamino)pyrimidin-4-ylamino)phenyl)sulfamide]
> 7.00	> 6.00	CN(C)c1ccc(Nc2ncc(Br)c(Nc3ccccc3NS(N)(=O)=O)n2)cc1 [Example 25]
> 7.00	> 6.00	COc1ccc(Nc2ncc(Br)c(Nc3ccccc3NS(N)(=O)=O)n2)cc1 [Example 26, N-(2-(5-bromo-2-(4-methoxyamino)pyrimidin-4-ylamino)phenyl)sulfamide]
> 6.00	> 6.00	NS(=O)(=O)Nc1ccccc1Nc1nc(Nc2ccc3[nH]nnc3c2)ncc1Br [Example 27, N-(2-(2 (1H-benzo[d][1,2,3]triazol-5-ylamino)-5-bromopyrimidin-4-ylamino)phenyl)sulfamide]
> 6.00	> 4.30	COc1ccc(Nc2ncc(F)c(Nc3ccccc3NS(N)(=O)=O)n2)cc1 [Example 28, N-(2-(5-fluoro-2-(4-methoxyphenylamino)pyrimidin-4-ylamino)phenyl)sulfamide]
	> 6.00	CN(C)c1ccc(Nc2ncc(F)c(Nc3ccccc3NS(N)(=O)=O)n2)cc1 [Example 29, N-(2-(5-fluoro-2-(4-(dimethylamino)phenylamino)pyrimidin-4-ylamino)phenyl)sulfamide]
> 7.00	> 7.00	COc1cc(Nc2ncc(F)c(Nc3cccc(C)c3NS(N)(=O)=O)n2)cc(OC)c1OC [Example 30, N-(2-(5-fluoro-2-(3,4,5-trimethoxyphenylamino)pyrimidin-4-ylamino)-6-methylphenyl)sulfamide]
